Source: US20060275362A1, “Rapidly-dissolving pharmaceutical composition for inhibiting ovulation” (priority 2005, published 2006)

Assay: Effect of Tween 80 on the solubility of drospirenone in water
Format: physicochemical
Conditions: Solubility enhancer Tween 80 (Polysorbate 80), drug:enhancer 1:9 parts by weight, agitated approximately 22 hours, versus water alone

In the case of C[C@]12CCC(=O)C=C1[C@@H]1C[C@@H]1[C@H]1[C@@H]3[C@@H]4C[C@@H]4[C@@]4(CCC(=O)O4)[C@@]3(C)CC[C@@H]12 [Drospirenone, (2′S, 6R, 7R, 8R, 9S, 10R, 13S, 14S, 15S, 16S)-1,3′, 4′, 6,7,8,9, 10, 11, 12, 13, 14, 15, 16, 20, 21-hexadecahydro-10, 13-dimethylspiro[17H-dicyclopropa[6,7:15,16]cyclopenta[a]phenanthrene-17,2′(5′H)-furan]-3,5′(2H)-dione], the “% Increase in the Solubility of Drospirenone as Determined by HPLC” value is reported as 42%.
